What was measured:
[1] = target: T1, human α1H T-type channels (Homo sapiens, UniProt O95180); experiment: T-type calcium channel block, whole cell patch clamp in HEK cells (α1H); type: cell-based; conditions: HEK cells, patch clamp, mainly non-inactivated protocol; values above 10 μM shown as 10 μM; read-out: T-type Calcium Channel Block α1H IC50
T1 construct: expressed in transfected cells; host or cells: HEK 293

[2] = target: T2, human α1G T-type channels (Homo sapiens, UniProt O43497); experiment: T-type calcium channel block, whole cell patch clamp in HEK cells (α1G); type: cell-based; conditions: HEK cells, patch clamp, mainly non-inactivated protocol; values above 10 μM shown as 10 μM, below 0.30 μM shown as 0.30 μM; read-out: T-type Calcium Channel Block α1G IC50
T2 construct: expressed in transfected cells; host or cells: HEK 293
T2 sequence (O43497 whole entry): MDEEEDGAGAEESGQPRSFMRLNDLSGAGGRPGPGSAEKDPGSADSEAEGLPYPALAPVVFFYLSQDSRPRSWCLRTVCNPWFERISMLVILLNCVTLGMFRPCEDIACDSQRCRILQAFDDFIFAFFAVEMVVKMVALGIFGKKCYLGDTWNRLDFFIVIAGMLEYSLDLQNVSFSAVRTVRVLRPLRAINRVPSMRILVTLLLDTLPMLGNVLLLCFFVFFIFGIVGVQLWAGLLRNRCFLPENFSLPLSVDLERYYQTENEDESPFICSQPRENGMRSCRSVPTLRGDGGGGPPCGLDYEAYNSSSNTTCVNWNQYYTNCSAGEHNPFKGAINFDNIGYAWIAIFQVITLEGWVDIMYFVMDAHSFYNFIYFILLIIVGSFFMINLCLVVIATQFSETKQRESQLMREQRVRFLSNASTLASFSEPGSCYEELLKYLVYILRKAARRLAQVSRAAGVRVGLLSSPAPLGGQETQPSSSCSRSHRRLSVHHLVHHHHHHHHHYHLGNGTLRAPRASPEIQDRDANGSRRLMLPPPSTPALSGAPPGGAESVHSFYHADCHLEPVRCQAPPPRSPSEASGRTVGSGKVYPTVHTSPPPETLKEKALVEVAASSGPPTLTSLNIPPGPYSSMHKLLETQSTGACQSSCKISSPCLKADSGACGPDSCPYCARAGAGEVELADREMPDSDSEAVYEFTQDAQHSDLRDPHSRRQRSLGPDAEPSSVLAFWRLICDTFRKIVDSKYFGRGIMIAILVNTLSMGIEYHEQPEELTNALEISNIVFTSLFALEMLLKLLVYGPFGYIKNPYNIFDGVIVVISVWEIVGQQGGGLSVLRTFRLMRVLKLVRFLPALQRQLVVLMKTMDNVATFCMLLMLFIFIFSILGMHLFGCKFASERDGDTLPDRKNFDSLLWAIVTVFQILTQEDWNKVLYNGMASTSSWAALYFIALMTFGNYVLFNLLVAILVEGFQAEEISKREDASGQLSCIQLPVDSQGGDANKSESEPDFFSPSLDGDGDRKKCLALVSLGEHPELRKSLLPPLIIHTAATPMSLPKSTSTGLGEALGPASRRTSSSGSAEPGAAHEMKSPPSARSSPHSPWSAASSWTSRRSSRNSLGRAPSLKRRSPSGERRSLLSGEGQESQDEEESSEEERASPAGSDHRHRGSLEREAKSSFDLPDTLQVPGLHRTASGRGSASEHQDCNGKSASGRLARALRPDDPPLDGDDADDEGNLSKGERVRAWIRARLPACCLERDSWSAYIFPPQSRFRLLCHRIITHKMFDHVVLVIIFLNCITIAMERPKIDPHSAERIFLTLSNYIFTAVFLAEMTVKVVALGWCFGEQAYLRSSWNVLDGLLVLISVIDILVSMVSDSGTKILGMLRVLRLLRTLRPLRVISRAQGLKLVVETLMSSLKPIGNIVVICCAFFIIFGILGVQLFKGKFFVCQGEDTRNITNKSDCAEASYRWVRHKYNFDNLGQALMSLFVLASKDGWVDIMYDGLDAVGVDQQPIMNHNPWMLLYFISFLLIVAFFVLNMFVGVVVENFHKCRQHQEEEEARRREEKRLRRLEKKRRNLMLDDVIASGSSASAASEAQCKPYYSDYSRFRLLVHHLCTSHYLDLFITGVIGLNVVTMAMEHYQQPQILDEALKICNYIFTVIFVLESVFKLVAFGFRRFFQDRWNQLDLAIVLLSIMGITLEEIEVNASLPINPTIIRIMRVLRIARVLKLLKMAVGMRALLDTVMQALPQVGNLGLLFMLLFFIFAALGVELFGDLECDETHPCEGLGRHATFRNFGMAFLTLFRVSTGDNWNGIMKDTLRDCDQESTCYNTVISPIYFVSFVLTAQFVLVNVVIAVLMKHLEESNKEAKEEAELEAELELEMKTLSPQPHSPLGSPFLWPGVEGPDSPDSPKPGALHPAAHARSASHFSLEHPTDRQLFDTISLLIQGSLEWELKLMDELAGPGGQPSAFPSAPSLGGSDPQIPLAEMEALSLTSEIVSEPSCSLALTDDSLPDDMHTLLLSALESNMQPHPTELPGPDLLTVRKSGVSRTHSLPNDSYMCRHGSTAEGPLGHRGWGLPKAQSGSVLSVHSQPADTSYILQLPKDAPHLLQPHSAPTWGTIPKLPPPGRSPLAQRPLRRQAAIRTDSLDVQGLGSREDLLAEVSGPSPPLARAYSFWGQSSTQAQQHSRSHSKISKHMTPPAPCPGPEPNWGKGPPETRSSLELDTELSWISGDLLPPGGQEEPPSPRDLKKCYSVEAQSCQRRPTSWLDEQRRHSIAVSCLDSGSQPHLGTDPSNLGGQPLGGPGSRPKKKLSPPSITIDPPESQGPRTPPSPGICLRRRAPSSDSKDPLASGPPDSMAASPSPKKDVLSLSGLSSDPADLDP

T1 sequence (O95180 whole entry): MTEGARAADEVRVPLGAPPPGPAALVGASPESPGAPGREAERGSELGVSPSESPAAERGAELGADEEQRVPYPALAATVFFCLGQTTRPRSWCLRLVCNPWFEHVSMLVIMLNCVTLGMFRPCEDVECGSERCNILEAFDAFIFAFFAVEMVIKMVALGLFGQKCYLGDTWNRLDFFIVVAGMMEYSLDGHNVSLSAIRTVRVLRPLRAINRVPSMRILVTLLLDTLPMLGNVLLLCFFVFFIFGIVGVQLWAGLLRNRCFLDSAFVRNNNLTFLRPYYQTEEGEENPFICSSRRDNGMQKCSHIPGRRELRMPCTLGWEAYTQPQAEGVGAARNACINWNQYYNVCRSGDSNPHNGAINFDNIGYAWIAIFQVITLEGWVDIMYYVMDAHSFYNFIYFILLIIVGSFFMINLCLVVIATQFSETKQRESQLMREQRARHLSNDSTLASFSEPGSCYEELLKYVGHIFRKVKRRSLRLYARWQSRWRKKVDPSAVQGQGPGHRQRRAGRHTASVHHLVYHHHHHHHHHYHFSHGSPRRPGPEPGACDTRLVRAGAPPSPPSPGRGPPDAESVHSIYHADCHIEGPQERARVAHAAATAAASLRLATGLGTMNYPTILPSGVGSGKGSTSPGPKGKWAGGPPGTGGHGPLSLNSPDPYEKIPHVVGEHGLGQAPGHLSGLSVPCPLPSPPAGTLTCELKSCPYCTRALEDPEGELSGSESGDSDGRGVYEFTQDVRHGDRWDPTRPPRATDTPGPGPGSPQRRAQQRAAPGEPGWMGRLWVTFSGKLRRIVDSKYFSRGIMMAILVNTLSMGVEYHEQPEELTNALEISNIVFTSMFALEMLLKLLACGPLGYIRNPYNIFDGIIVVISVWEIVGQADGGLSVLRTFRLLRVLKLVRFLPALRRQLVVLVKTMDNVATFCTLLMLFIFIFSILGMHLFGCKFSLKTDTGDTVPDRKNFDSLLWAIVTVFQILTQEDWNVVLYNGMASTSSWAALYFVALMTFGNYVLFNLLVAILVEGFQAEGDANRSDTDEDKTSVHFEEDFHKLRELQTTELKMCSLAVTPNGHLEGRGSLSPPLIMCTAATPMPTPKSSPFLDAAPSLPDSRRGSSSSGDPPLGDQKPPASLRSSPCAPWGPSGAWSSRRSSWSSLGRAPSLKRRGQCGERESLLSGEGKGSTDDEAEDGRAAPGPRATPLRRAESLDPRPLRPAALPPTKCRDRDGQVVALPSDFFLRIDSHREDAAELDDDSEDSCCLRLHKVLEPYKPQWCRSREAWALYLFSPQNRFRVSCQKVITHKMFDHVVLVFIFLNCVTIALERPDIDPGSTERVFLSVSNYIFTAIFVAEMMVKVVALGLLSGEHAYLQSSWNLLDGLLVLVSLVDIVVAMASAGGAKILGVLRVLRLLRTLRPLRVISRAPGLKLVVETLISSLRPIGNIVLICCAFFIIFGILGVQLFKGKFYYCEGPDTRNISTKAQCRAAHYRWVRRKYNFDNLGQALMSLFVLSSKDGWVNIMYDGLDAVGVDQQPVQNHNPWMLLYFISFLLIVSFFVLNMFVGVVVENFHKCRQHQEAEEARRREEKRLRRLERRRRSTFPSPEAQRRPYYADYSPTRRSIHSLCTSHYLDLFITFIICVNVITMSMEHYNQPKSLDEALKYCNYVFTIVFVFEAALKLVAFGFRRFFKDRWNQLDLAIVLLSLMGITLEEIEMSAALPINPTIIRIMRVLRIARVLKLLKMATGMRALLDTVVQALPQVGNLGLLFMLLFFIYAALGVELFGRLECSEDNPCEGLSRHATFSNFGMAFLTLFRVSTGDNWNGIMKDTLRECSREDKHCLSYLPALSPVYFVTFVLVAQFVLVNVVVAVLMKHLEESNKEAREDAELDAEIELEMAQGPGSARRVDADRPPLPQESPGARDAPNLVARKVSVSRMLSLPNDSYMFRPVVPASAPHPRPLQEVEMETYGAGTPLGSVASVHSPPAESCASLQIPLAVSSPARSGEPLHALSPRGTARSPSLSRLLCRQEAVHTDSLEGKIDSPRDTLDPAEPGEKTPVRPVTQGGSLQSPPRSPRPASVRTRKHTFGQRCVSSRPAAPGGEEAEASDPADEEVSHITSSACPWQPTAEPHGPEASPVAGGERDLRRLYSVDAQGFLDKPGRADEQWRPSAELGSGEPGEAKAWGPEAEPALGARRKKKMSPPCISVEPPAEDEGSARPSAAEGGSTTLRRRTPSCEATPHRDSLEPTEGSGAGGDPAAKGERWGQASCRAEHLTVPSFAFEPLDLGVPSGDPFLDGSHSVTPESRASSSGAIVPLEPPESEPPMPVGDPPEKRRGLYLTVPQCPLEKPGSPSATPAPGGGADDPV

Structure (SMILES)	IC50 [1] [nM]	IC50 [2] [nM]
CCCCCNCC(=O)N1CCC(CNC(=O)c2cc(C(F)(F)F)cc(C(F)(F)F)c2)CC1 [Compound 241, N-((1-(2-(pentylamino)acetyl)piperidin-4-yl)methyl)-3,5-bis(trifluoromethyl)benzamide]	520	< 300
O=C(NCC1CCN(C(=O)CNCCCN2CCOCC2)CC1)c1cc(C(F)(F)F)cc(C(F)(F)F)c1 [Compound 244, N-((1-(2-(3-morpholinopropylamino)acetyl)piperidin-4-yl)methyl)-3,5-bis(trifluoromethyl)benzamide]	> 10000	7190
O=C(NCC1CCN(C(=O)CN2CCCC(C(F)(F)F)C2)CC1)c1cc(C(F)(F)F)cc(C(F)(F)F)c1 (stereo not shown) [Compound 255, 3,5-bis(trifluoromethyl)-N-((1-(2-(3-(trifluoromethyl)piperidin-1-yl)acetyl)piperidin-4-yl)methyl)benzamide]	2340	570
O=C(NCC1CCN(C(=O)CN2CCCC(F)(F)C2)CC1)c1cc(C(F)(F)F)cc(C(F)(F)F)c1 [Compound 256, N-((1-(2-(3,3-difluoropiperidin-1-yl)acetyl)piperidin-4-yl)methyl)-3,5-bis(trifluoromethyl)benzamide]	> 10000	5570
CC(C)(C)NCC(=O)N1CCC(CNC(=O)c2cc(F)cc(C(F)(F)F)c2)CC1 [Compound 265, N-((1-(2-(tert-butylamino)acetyl)piperidin-4-yl)methyl)-3-fluoro-5-(trifluoromethyl)benzamide]	3760	2060
CCCCCNCC(=O)N1CCC(CNC(=O)c2cc(F)cc(C(F)(F)F)c2)CC1 [Compound 267, 3-fluoro-N-((1-(2-(pentylamino)acetyl)piperidin-4-yl)methyl)-5-(trifluoromethyl)benzamide]	870	390
CC1CCCN(CC(=O)N2CCC(CNC(=O)c3cc(F)cc(C(F)(F)F)c3)CC2)C1 (stereo not shown) [Compound 268, 3-fluoro-N-((1-(2-(3-methylpiperidin-1-yl)acetyl)piperidin-4-yl)methyl)-5-(trifluoromethyl)benzamide]	> 10000	> 10000
CCC1CCCCN1CC(=O)N1CCC(CNC(=O)c2cc(F)cc(C(F)(F)F)c2)CC1 (stereo not shown) [Compound 269, N-((1-(2-(2-ethylpiperidin-1-yl)acetyl)piperidin-4-yl)methyl)-3-fluoro-5-(trifluoromethyl)benzamide]	3140	1400
C[C@@H]1CCCCN1CC(=O)N1CCC(CNC(=O)c2cc(F)cc(C(F)(F)F)c2)CC1 [Compound 279, (R)-3-fluoro-N-((1-(2-(2-methyl-piperidin-1-yl)acetyl)piperidin-4-yl)methyl)-5-(trifluoromethyl)benzamide]	> 10000	> 10000
CCC1CCCN1CC(=O)N1CCC(CNC(=O)c2cc(F)cc(C(F)(F)F)c2)CC1 (stereo not shown) [Compound 280, N-((1-(2-(2-ethylpyrrolidin-1-yl)acetyl)piperidin-4-yl)methyl)-3-fluoro-5-(trifluoromethyl)benzamide]	5590	9700
O=C(NCC1CCN(C(=O)CN2CCCC(C(F)(F)F)C2)CC1)c1cc(F)cc(C(F)(F)F)c1 (stereo not shown) [Compound 282, 3-fluoro-5-(trifluoromethyl)-N-((1-(2-(3-(trifluoromethyl)piperidin-1-yl)acetyl)piperidin-4-yl)methyl)benzamide]	7160	2500
CC(C)(C)C1CCN(CC(=O)N2CCC(CNC(=O)c3cc(F)cc(C(F)(F)F)c3)CC2)CC1 [Compound 285, N-((1-(2-(4-tert-butylpiperidin-1-yl)acetyl)piperidin-4-yl)methyl)-3-fluoro-5-(trifluoromethyl)benzamide]	> 10000	4940
CC(C)(C)C(=O)NCCN1CCC(CNC(=O)c2cccc(OC(F)(F)F)c2)CC1 [Compound 292, N-((1-(2-pivalamidoethyl)piperidin-4-yl)methyl)-3-(trifluoromethoxy)benzamide]	740	360

Second part, the molecule after the results:

IC50 [1] [nM]	IC50 [2] [nM]	Structure (SMILES)
1730	< 300	CC(C)(C)NCC(=O)N1CCC(CNC(=O)c2cc(C(F)(F)F)cc(C(F)(F)F)c2)CC1 [Compound 239, N-((1-(2-(tert-butylamino)acetyl)piperidin-4-yl)methyl)-3,5-bis(trifluoromethyl)benzamide]
> 10000	> 10000	O=C(NCC1CCN(C(=O)CN2CCCC(O)C2)CC1)c1cc(C(F)(F)F)cc(C(F)(F)F)c1 (stereo not shown) [Compound 240, N-((1-(2-(3-hydroxypiperidin-1-yl)acetyl)piperidin-4-yl)methyl)-3,5-bis(trifluoromethyl)benzamide]
810	530	CCC1CCCCN1CC(=O)N1CCC(CNC(=O)c2cc(C(F)(F)F)cc(C(F)(F)F)c2)CC1 (stereo not shown) [Compound 243, N-((1-(2-(2-ethylpiperidin-1-yl)acetyl)piperidin-4-yl)methyl)-3,5-bis(trifluoromethyl)benzamide]
1130	1310	CN(CC(=O)N1CCC(CNC(=O)c2cc(C(F)(F)F)cc(C(F)(F)F)c2)CC1)C1CCCCC1 [Compound 246, N-((1-(2-(cyclohexyl(methyl)amino)acetyl)piperidin-4-yl)methyl)-3,5-bis(trifluoromethyl)benzamide]
500	< 300	O=C(NCC1CCN(C(=O)CNC2CCCC2)CC1)c1cc(C(F)(F)F)cc(C(F)(F)F)c1 [Compound 247, N-((1-(2-(cyclopentylamino)acetyl)piperidin-4-yl)methyl)-3,5-bis(trifluoromethyl)benzamide]
480	< 300	CC1CCCCC1NCC(=O)N1CCC(CNC(=O)c2cc(C(F)(F)F)cc(C(F)(F)F)c2)CC1 (stereo not shown) [Compound 248, N-((1-(2-(2-methylcyclohexylamino)acetyl)piperidin-4-yl)methyl)-3,5-bis(trifluoromethyl)benzamide]
580	< 300	O=C(NCC1CCN(C(=O)CNC2CCCCC2)CC1)c1cc(C(F)(F)F)cc(C(F)(F)F)c1 [Compound 249, N-((1-(2-(cyclohexylamino)acetyl)piperidin-4-yl)methyl)-3,5-bis(trifluoromethyl)benzamide]
> 10000	> 10000	COC1CCN(CC(=O)N2CCC(CNC(=O)c3cc(C(F)(F)F)cc(C(F)(F)F)c3)CC2)CC1 [Compound 251, N-((1-(2-(4-methoxypiperidin-1-yl)acetyl)piperidin-4-yl)methyl)-3,5-bis(trifluoromethyl)benzamide]
2340	2430	C[C@@H]1CCCCN1CC(=O)N1CCC(CNC(=O)c2cc(C(F)(F)F)cc(C(F)(F)F)c2)CC1 [Compound 252, (R)-N-((1-(2-(2-methylpiperidin-1-yl)acetyl)piperidin-4-yl)methyl)-3,5-bis(trifluoromethyl)benzamide]
1310	480	CCC1CCCN1CC(=O)N1CCC(CNC(=O)c2cc(C(F)(F)F)cc(C(F)(F)F)c2)CC1 (stereo not shown) [Compound 253, N-((1-(2-(2-ethylpyrrolidin-1-yl)acetyl)piperidin-4-yl)methyl)-3,5-bis(trifluoromethyl)benzamide]
2420	3210	O=C(NCC1CCN(C(=O)CNC2CC2)CC1)c1cc(C(F)(F)F)cc(C(F)(F)F)c1 [Compound 257, N-((1-(2-(cyclopropylamino)acetyl)piperidin-4-yl)methyl)-3,5-bis(trifluoromethyl)benzamide]
3240	1180	CC(C)(C)C1CCN(CC(=O)N2CCC(CNC(=O)c3cc(C(F)(F)F)cc(C(F)(F)F)c3)CC2)CC1 [Compound 258, N-((1-(2-(4-tert-butylpiperidin-1-yl)acetyl)piperidin-4-yl)methyl)-3,5-bis(trifluoromethyl)benzamide]
530	< 300	C[C@H]1CC[C@H](NCC(=O)N2CCC(CNC(=O)c3cc(C(F)(F)F)cc(C(F)(F)F)c3)CC2)CC1 [Compound 264, N-((1-(2-((1r,4r)-4-methylcyclohexylamino)acetyl)piperidin-4-yl)methyl)-3,5-bis(trifluoromethyl)benzamide]
> 10000	2840	CN(CC(=O)N1CCC(CNC(=O)c2cc(F)cc(C(F)(F)F)c2)CC1)C1CCCCC1 [Compound 272, N-((1-(2-(cyclohexyl(methyl)amino)acetyl)piperidin-4-yl)methyl)-3-fluoro-5-(trifluoromethyl)benzamide]
1420	360	O=C(NCC1CCN(C(=O)CNC2CCCC2)CC1)c1cc(F)cc(C(F)(F)F)c1 [Compound 273, N-((1-(2-(cyclopentylamino)acetyl)piperidin-4-yl)methyl)-3-fluoro-5-(trifluoromethyl)benzamide]
660	< 300	CC1CCCCC1NCC(=O)N1CCC(CNC(=O)c2cc(F)cc(C(F)(F)F)c2)CC1 (stereo not shown) [Compound 274, 3-fluoro-N-((1-(2-(2-methylcyclohexylamino)acetyl)piperidin-4-yl)methyl)-5-(trifluoromethyl)benzamide]
> 10000	1990	O=C(NCC1CCN(C(=O)CNC2CCCCC2O)CC1)c1cc(F)cc(C(F)(F)F)c1 (stereo not shown) [Compound 275, 3-fluoro-N-((1-(2-(2-hydroxycyclohexylamino)acetyl)piperidin-4-yl)methyl)-5-(trifluoromethyl)benzamide]
1090	310	O=C(NCC1CCN(C(=O)CNC2CCCCC2)CC1)c1cc(F)cc(C(F)(F)F)c1 [Compound 276, N-((1-(2-(cyclohexylamino)acetyl)piperidin-4-yl)methyl)-3-fluoro-5-(trifluoromethyl)benzamide]
510	< 300	C[C@H]1CC[C@H](NCC(=O)N2CCC(CNC(=O)c3cc(F)cc(C(F)(F)F)c3)CC2)CC1 [Compound 291, 3-fluoro-N-((1-(2-((1r,4r)-4-methylcyclohexylamino)acetyl)piperidin-4-yl)methyl)-5-(trifluoromethyl)benzamide]
